Laboratory results reported in patent US9695155B2, “Herbicidal substituted pyrimidinyloxy benzene compounds” (E. I. DU PONT DE NEMOURS AND COMPANY, priority 2013, dated 2017).

Columns and labels:
[1] = tested on: bromegrass, downy; assay: Test D preemergence; assay type: in vivo, Bromus tectorum
Source text: (§1) Seeds of plant species selected from bluegrass (annual bluegrass, Poa annua), blackgrass (Alopecurus myosuroides), canarygrass (littleseed canarygrass, Phalaris minor), chickweed (common chickweed, Stellaria media), galium (catchweed bedstraw, Galium aparine), bromegrass, downy (downy bromegrass, Bromus tectorum), field poppy (Papaver rhoeas), field violet (Viola arvensis), green foxtail (Setaria viridis), deadnettle (henbit deadnettle, Lamium amplexicaule), Italian ryegrass (Lolium multiflorum), kochia (Kochia scoparia), lambsquarters (Chenopodium album), oilseed rape (Brassica napus), pigweed (Amaranthus retroflexus), chamomile (scentless chamomile, Matricaria inodora), Russian thistle (Salsola kali), speedwell (bird's-eye speedwell, Veronica persica), spring barley (Hordeum vulgare), spring wheat (Triticum aestivum), wild buckwheat (Polygonum convolvulus), wild mustard (Sinapis arvensis), wild oat (Avena fatua), wild radish (Raphanus raphanistrum), windgrass (Apera spica-venti), winter barley (Hordeum vulgare), and winter wheat (Triticum aestivum) were planted into a silt loam soil and treated preemergence with test chemicals formulated in a non-phytotoxic solvent mixture which included a surfactant.
(§2) At the same time, these species were planted in pots containing Redi-Earth® planting medium (Scotts Company, 14111 Scottslawn Road, Marysville, Ohio 43041) comprising spaghnum peat moss, vermiculite, wetting agent and starter nutrients and treated with postemergence applications of the test chemicals formulated in the same manner. Plants ranged in height from 2 to 18 cm (1- to 4-leaf stage). Treated plants and controls were maintained in a controlled growth environment for 7 to 21 days after which time all species were compared to controls and visually evaluated. Plant response ratings, summarized in Table D, are based on a scale of 0 to 100 where 0 is no effect and 100 is complete control. A dash (-) response means no test result.

[2] = tested on: field violet; assay: Test D preemergence; assay type: in vivo, Viola arvensis
Source text: as §1, §2

[3] = tested on: kochia; assay: Test D preemergence; assay type: in vivo, Kochia scoparia
Source text: as §1, §2

[4] = tested on: blackgrass; assay: Test D postemergence; assay type: in vivo, Alopecurus myosuroides
Source text: as §1, §2

[5] = tested on: green foxtail; assay: Test D postemergence; assay type: in vivo, Setaria viridis
Source text: as §1, §2

[6] = tested on: deadnettle; assay: Test D postemergence; assay type: in vivo, Lamium amplexicaule
Source text: as §1, §2

[7] = tested on: spring barley; assay: Test D postemergence; assay type: in vivo, Hordeum vulgare
Source text: as §1, §2

[8] = tested on: winter barley; assay: Test D postemergence; assay type: in vivo, Hordeum vulgare
Source text: as §1, §2

[9] = tested on: wild mustard; assay: Test D postemergence; assay type: in vivo, Sinapis arvensis
Source text: as §1, §2

[10] = 16 g ai/ha, scale 0 (no effect) to 100 (complete control)
[11] = Postemergence, 62 g ai/ha, scale 0 to 100 (0 no effect, 100 complete control)
[12] = Postemergence, 31 g ai/ha, scale 0 to 100 (0 no effect, 100 complete control)
[13] = Postemergence, 125 g ai/ha, scale 0 to 100 (0 no effect, 100 complete control)
[14] = postemergence, 16 g ai/ha, scale 0 to 100, 0 no effect, 100 complete control
[15] = 31 g ai/ha, scale 0 to 100 (0 no effect, 100 complete control)
[16] = 62 g ai/ha, scale 0 to 100 (0 no effect, 100 complete control)
[17] = 125 g ai/ha, scale 0 to 100 (0 no effect, 100 complete control)

With `N#Cc1cccc(Oc2ncc(Cl)cn2)c1-n1cc(Br)cn1` [Compound 52, 2-(4-bromo-1H-pyrazol-1-yl)-3-[(5-chloro-2-pyrimidinyl)oxy]benzonitrile] the pest or weed control at 31 g/ha ([1]; Bromus tectorum, pre-emergence, 31 g ai/ha, scale 0-100, read-out: Plant response rating, Bromegrass, Downy) was 0%, the pest or weed control at 62 g/ha ([1]; Bromus tectorum, pre-emergence, 62 g ai/ha, scale 0-100, read-out: Plant response rating, Bromegrass, Downy) was 0% and the pest or weed control at 125 g/ha ([1]; Bromus tectorum, pre-emergence, 125 g ai/ha, scale 0-100, read-out: Plant response rating, Bromegrass, Downy) was 0%. The pest or weed control at 250 g/ha ([1]; Bromus tectorum, pre-emergence, 250 g ai/ha, scale 0-100, read-out: Plant response rating, Bromegrass, Downy) was 0%, the pest or weed control at 31 g/ha ([2]; Viola arvensis, pre-emergence, 31 g ai/ha, scale 0-100, read-out: Plant response rating, Field Violet) was 75% and the pest or weed control at 62 g/ha ([2]; Viola arvensis, pre-emergence, 62 g ai/ha, scale 0-100, read-out: Plant response rating, Field Violet) was 95%. It also gave a pest or weed control at 125 g/ha ([2]; Viola arvensis, pre-emergence, 125 g ai/ha, scale 0-100, read-out: Plant response rating, Field Violet) of 100%, a pest or weed control at 250 g/ha ([2]; Viola arvensis, pre-emergence, 250 g ai/ha, scale 0-100, read-out: Plant response rating, Field Violet) of 100% and a pest or weed control at 31 g/ha ([3]; Bassia scoparia, pre-emergence, 31 g ai/ha, scale 0-100, read-out: Plant response rating, Kochia) of 95%. For the same molecule, the pest or weed control at 62 g/ha ([3]; Bassia scoparia, pre-emergence, 62 g ai/ha, scale 0-100, read-out: Plant response rating, Kochia) was 95%, the pest or weed control at 125 g/ha ([3]; Bassia scoparia, pre-emergence, 125 g ai/ha, scale 0-100, read-out: Plant response rating, Kochia) was 95% and the pest or weed control at 250 g/ha ([3]; Bassia scoparia, pre-emergence, 250 g ai/ha, scale 0-100, read-out: Plant response rating, Kochia) was 95%. It also gave a pest or weed control at 62 g/ha ([4]; Alopecurus myosuroides, post-emergence, Postemergence, 62 g ai/ha, scale 0 to 100 (0 no effect, 100 complete control), read-out: Plant response rating, Blackgrass) of 30%, a pest or weed control at 31 g/ha ([4]; Alopecurus myosuroides, post-emergence, Postemergence, 31 g ai/ha, scale 0 to 100 (0 no effect, 100 complete control), read-out: Plant response rating, Blackgrass) of 30% and a pest or weed control at 125 g/ha ([4]; Alopecurus myosuroides, post-emergence, Postemergence, 125 g ai/ha, scale 0 to 100 (0 no effect, 100 complete control), read-out: Plant response rating, Blackgrass) of 40%. The pest or weed control at 250 g/ha ([4]; Alopecurus myosuroides, post-emergence, Postemergence, 250 g ai/ha, scale 0 to 100 (0 no effect, 100 complete control), read-out: Plant response rating, Blackgrass) was 65%, the pest or weed control at 31 g/ha ([5]; Setaria viridis, post-emergence, 31 g ai/ha, scale 0 to 100 (0 no effect, 100 complete control), read-out: Plant response rating, Foxtail, Green) was 15% and the pest or weed control at 62 g/ha ([5]; Setaria viridis, post-emergence, 62 g ai/ha, scale 0 to 100 (0 no effect, 100 complete control), read-out: Plant response rating, Foxtail, Green) was 20%. It also gave a pest or weed control at 125 g/ha ([5]; Setaria viridis, post-emergence, 125 g ai/ha, scale 0 to 100 (0 no effect, 100 complete control), read-out: Plant response rating, Foxtail, Green) of 40%, a pest or weed control at 250 g/ha ([5]; Setaria viridis, post-emergence, 250 g ai/ha, scale 0 to 100 (0 no effect, 100 complete control), read-out: Plant response rating, Foxtail, Green) of 75% and a pest or weed control at 31 g/ha ([6]; Lamium amplexicaule, post-emergence, 31 g ai/ha, scale 0 to 100 (0 no effect, 100 complete control), read-out: Plant response rating, Deadnettle) of 65%. For the same molecule, the pest or weed control at 62 g/ha ([6]; Lamium amplexicaule, post-emergence, 62 g ai/ha, scale 0 to 100 (0 no effect, 100 complete control), read-out: Plant response rating, Deadnettle) was 70%, the pest or weed control at 125 g/ha ([6]; Lamium amplexicaule, post-emergence, 125 g ai/ha, scale 0 to 100 (0 no effect, 100 complete control), read-out: Plant response rating, Deadnettle) was 70% and the pest or weed control at 250 g/ha ([6]; Lamium amplexicaule, post-emergence, 250 g ai/ha, scale 0 to 100 (0 no effect, 100 complete control), read-out: Plant response rating, Deadnettle) was 100%. The plant injury at 31 g/ha ([7]; Hordeum vulgare, post-emergence, Postemergence, 31 g ai/ha, scale 0 to 100 (0 no effect, 100 complete control), read-out: Plant response rating, Barley, Spring) was 10%, the plant injury at 62 g/ha ([7]; Hordeum vulgare, post-emergence, Postemergence, 62 g ai/ha, scale 0 to 100 (0 no effect, 100 complete control), read-out: Plant response rating, Barley, Spring) was 15% and the plant injury at 125 g/ha ([7]; Hordeum vulgare, post-emergence, Postemergence, 125 g ai/ha, scale 0 to 100 (0 no effect, 100 complete control), read-out: Plant response rating, Barley, Spring) was 15%. For the same molecule, the plant injury at 250 g/ha ([7]; Hordeum vulgare, post-emergence, Postemergence, 250 g ai/ha, scale 0 to 100 (0 no effect, 100 complete control), read-out: Plant response rating, Barley, Spring) was 20%, the plant injury at 31 g/ha ([8]; Hordeum vulgare, post-emergence, Postemergence, 31 g ai/ha, scale 0 to 100 (0 no effect, 100 complete control), read-out: Plant response rating, Barley, Winter) was 10% and the plant injury at 62 g/ha ([8]; Hordeum vulgare, post-emergence, Postemergence, 62 g ai/ha, scale 0 to 100 (0 no effect, 100 complete control), read-out: Plant response rating, Barley, Winter) was 10%. For the same molecule, the plant injury at 125 g/ha ([8]; Hordeum vulgare, post-emergence, Postemergence, 125 g ai/ha, scale 0 to 100 (0 no effect, 100 complete control), read-out: Plant response rating, Barley, Winter) was 15%, the plant injury at 250 g/ha ([8]; Hordeum vulgare, post-emergence, Postemergence, 250 g ai/ha, scale 0 to 100 (0 no effect, 100 complete control), read-out: Plant response rating, Barley, Winter) was 20% and the pest or weed control at 31 g/ha ([9]; Brassica, post-emergence, 31 g ai/ha, scale 0 to 100 (0 no effect, 100 complete control), read-out: Plant response rating, Mustard, Wild) was 70%. The pest or weed control at 62 g/ha ([9]; Brassica, post-emergence, 62 g ai/ha, scale 0 to 100 (0 no effect, 100 complete control), read-out: Plant response rating, Mustard, Wild) was 80%, the pest or weed control at 125 g/ha ([9]; Brassica, post-emergence, 125 g ai/ha, scale 0 to 100 (0 no effect, 100 complete control), read-out: Plant response rating, Mustard, Wild) was 95% and the pest or weed control at 250 g/ha ([9]; Brassica, post-emergence, 250 g ai/ha, scale 0 to 100 (0 no effect, 100 complete control), read-out: Plant response rating, Mustard, Wild) was 100%.
`FCc1cccc(Oc2ncc(Cl)cn2)c1-n1cc(I)cn1` [Compound 245] was tested, and the “Plant response rating, Bromegrass, Downy” value [1, 10] was 0, the “Plant response rating, Bromegrass, Downy” value ([1]; 31 g ai/ha, scale 0-100) was 0 and the “Plant response rating, Bromegrass, Downy” value ([1]; 62 g ai/ha, scale 0-100) was 35. For the same molecule, the “Plant response rating, Bromegrass, Downy” value ([1]; 125 g ai/ha, scale 0-100) was 40, the “Plant response rating, Field Violet” value [2, 10] was 55 and the “Plant response rating, Field Violet” value ([2]; 31 g ai/ha, scale 0-100) was 95. The “Plant response rating, Field Violet” value ([2]; 62 g ai/ha, scale 0-100) was 100, the “Plant response rating, Field Violet” value ([2]; 125 g ai/ha, scale 0-100) was 100 and the “Plant response rating, Kochia” value [3, 10] was 0. For the same molecule, the “Plant response rating, Kochia” value ([3]; 31 g ai/ha, scale 0-100) was 0, the “Plant response rating, Kochia” value ([3]; 62 g ai/ha, scale 0-100) was 75 and the “Plant response rating, Kochia” value ([3]; 125 g ai/ha, scale 0-100) was 75. For the same molecule, the “Plant response rating, Blackgrass” value [4, 11] was 20, the “Plant response rating, Blackgrass” value [4, 12] was 10 and the “Plant response rating, Blackgrass” value [4, 13] was 25. For the same molecule, the “Plant response rating, Blackgrass” value [4, 14] was 5, the “Plant response rating, Foxtail, Green” value ([5]; 16 g ai/ha, scale 0-100) was 10 and the “Plant response rating, Foxtail, Green” value [5, 15] was 20. For the same molecule, the “Plant response rating, Foxtail, Green” value [5, 16] was 35, the “Plant response rating, Foxtail, Green” value [5, 17] was 45 and the “Plant response rating, Deadnettle” value ([6]; 16 g ai/ha, scale 0-100) was 100. For the same molecule, the “Plant response rating, Deadnettle” value [6, 15] was 100, the “Plant response rating, Deadnettle” value [6, 16] was 100 and the “Plant response rating, Deadnettle” value [6, 17] was 100. For the same molecule, the “Plant response rating, Barley, Spring” value [7, 11] was 20, the “Plant response rating, Barley, Spring” value [7, 12] was 20 and the “Plant response rating, Barley, Spring” value [7, 13] was 30. For the same molecule, the “Plant response rating, Barley, Spring” value [7, 14] was 10, the “Plant response rating, Barley, Winter” value [8, 11] was 20 and the “Plant response rating, Barley, Winter” value [8, 12] was 15. For the same molecule, the “Plant response rating, Barley, Winter” value [8, 13] was 20, the “Plant response rating, Barley, Winter” value [8, 14] was 25 and the “Plant response rating, Mustard, Wild” value ([9]; 16 g ai/ha, scale 0-100) was 80. For the same molecule, the “Plant response rating, Mustard, Wild” value [9, 15] was 70, the “Plant response rating, Mustard, Wild” value [9, 16] was 100 and the “Plant response rating, Mustard, Wild” value [9, 17] was 98.
